{
  "source": "patent US11236081B2",
  "about": "“Crystalline salts of corydalmine” (priority 2018, dated 2022)",
  "key": {"[1]": {"test": "Pharmacokinetic study: plasma concentration and plasma PK parameters after IV/PO dosing (LC-MS/MS, WinNonlin)", "assay_type": "in vivo, Male SD Rat", "details": "male, rat, plasma, male SD rat, plasma; for half-life: read-out: T1/2, Mean (converted)", "procedure,_shortened": "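Plasma levels after IV and oral dosing were measured by LC-MS/MS. Non-compartmental parameters came from concentration–time data: T1/2, C0, AUC, MRT, Cl and Vss for IV; T1/2, Cmax, Tmax, AUC, MRT and F% for PO. Values are given as mean and standard deviation.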"}, "[2]": {"test": "Solubility studies in water at 2 hours", "assay_type": "physicochemical"}, "[3]": {"test": "Acid pKa of the free base", "assay_type": "physicochemical"}, "[4]": {"details": "Sprague-Dawley, iv, 3 mg/kg, IV 3 mg/kg, individual rats, read-out: concentration in plasma"}, "[5]": {"details": "Sprague-Dawley, iv, 3 mg/kg, IV 3 mg/kg, mean n=3, read-out: concentration in plasma, Mean"}, "[6]": {"details": "Sprague-Dawley, po, 10 mg/kg, PO 10 mg/kg (equal to freebase), mean n=3, vehicle 20% HP-β-CD in water (POA, freebase) or water (salts), read-out: concentration in plasma, Mean"}, "[7]": {"details": "Sprague-Dawley, po, 10 mg/kg, PO 10 mg/kg (equal to freebase), individual rats, vehicle 20% HP-β-CD in water (POA, freebase) or water (salts), read-out: concentration in plasma"}},
  "note": "Like-named read-outs stand apart in the source and are kept apart here.",
  "data": [
    {"smiles": "COc1cc2c(cc1OC)[C@@H]1Cc3ccc(O)c(OC)c3CN1CC2", "note": "[Compound (1), l-corydalmine]", "values": [
      {"measurement": "AUC(0-inf)", "setting": "[1]; SD, iv, 3 mg/kg, IV 3 mg/kg, individual rats, read-out: AUCInf", "value": 950, "unit": "ng·h/mL"},
      {"measurement": "AUC(0-t)", "setting": "[1]; SD, iv, 3 mg/kg, IV 3 mg/kg, individual rats, read-out: AUClast", "value": 937, "unit": "ng·h/mL"},
      {"measurement": "MRT inf", "setting": "[1]; SD, iv, 3 mg/kg, IV 3 mg/kg, individual rats, read-out: MRTInf_obs", "value": 1.09, "unit": "h"},
      {"measurement": "AUC(0-inf)", "setting": "[1]; SD, iv, 3 mg/kg, IV 3 mg/kg, mean n=3, read-out: AUCInf, Mean", "value": 1020, "unit": "ng·h/mL"},
      {"measurement": "AUC(0-t)", "setting": "[1]; SD, iv, 3 mg/kg, IV 3 mg/kg, mean n=3, read-out: AUClast, Mean", "value": 1000, "unit": "ng·h/mL"},
      {"measurement": "MRT inf", "setting": "[1]; SD, iv, 3 mg/kg, IV 3 mg/kg, mean n=3, read-out: MRTInf_obs, Mean", "value": 1.23, "unit": "h"},
      {"measurement": "AUC(0-inf)", "setting": "[1]; SD, po, 10 mg/kg, PO 10 mg/kg (equal to freebase), individual rats, vehicle 20% HP-β-CD in water (POA, freebase) or water (salts), read-out: AUCInf", "value": 1490, "unit": "ng·h/mL"},
      {"measurement": "AUC(0-t)", "setting": "[1]; SD, po, 10 mg/kg, PO 10 mg/kg (equal to freebase), individual rats, vehicle 20% HP-β-CD in water (POA, freebase) or water (salts), read-out: AUClast", "value": 615, "unit": "ng·h/mL"},
      {"measurement": "Tmax", "setting": "[1]; SD, po, 10 mg/kg, PO 10 mg/kg (equal to freebase), individual rats, vehicle 20% HP-β-CD in water (POA, freebase) or water (salts), read-out: Tmax", "value": 0.5, "unit": "h"},
      {"measurement": "AUC(0-inf)", "setting": "[1]; SD, po, 10 mg/kg, PO 10 mg/kg (equal to freebase), mean n=3, vehicle 20% HP-β-CD in water (POA, freebase) or water (salts), read-out: AUCInf, Mean", "value": 1080, "unit": "ng·h/mL"},
      {"measurement": "AUC(0-t)", "setting": "[1]; SD, po, 10 mg/kg, PO 10 mg/kg (equal to freebase), mean n=3, vehicle 20% HP-β-CD in water (POA, freebase) or water (salts), read-out: AUClast, Mean", "value": 788, "unit": "ng·h/mL"},
      {"measurement": "Cmax", "setting": "[1]; SD, po, 10 mg/kg, PO 10 mg/kg (equal to freebase), mean n=3, vehicle 20% HP-β-CD in water (POA, freebase) or water (salts), read-out: Cmax, Mean", "value": 202, "unit": "ng/mL"},
      {"measurement": "MRT inf", "setting": "[1]; SD, po, 10 mg/kg, PO 10 mg/kg (equal to freebase), mean n=3, vehicle 20% HP-β-CD in water (POA, freebase) or water (salts), read-out: MRTInf_obs, Mean", "value": 7.84, "unit": "h"},
      {"measurement": "half-life", "setting": "[1]; SD, po, 10 mg/kg, PO 10 mg/kg (equal to freebase), mean n=3, vehicle 20% HP-β-CD in water (POA, freebase) or water (salts)", "value": 4.9, "unit": "h"},
      {"measurement": "Tmax", "setting": "[1]; SD, po, 10 mg/kg, PO 10 mg/kg (equal to freebase), mean n=3, vehicle 20% HP-β-CD in water (POA, freebase) or water (salts), read-out: Tmax, Mean", "value": 0.417, "unit": "h"},
      {"measurement": "concentration at 0.083 h", "setting": "[1]; [4]", "value": 1420, "unit": "ng/mL"},
      {"measurement": "concentration at 0.083 h", "setting": "[1]; [5]", "value": 1480, "unit": "ng/mL"},
      {"measurement": "concentration at 0.25 h", "setting": "[1]; [4]", "value": 974, "unit": "ng/mL"},
      {"measurement": "concentration at 0.25 h", "setting": "[1]; [5]", "value": 976, "unit": "ng/mL"},
      {"measurement": "concentration at 0.5 h", "setting": "[1]; [4]", "value": 401, "unit": "ng/mL"},
      {"measurement": "concentration at 0.5 h", "setting": "[1]; [5]", "value": 478, "unit": "ng/mL"},
      {"measurement": "concentration at 1 h", "setting": "[1]; [4]", "value": 192, "unit": "ng/mL"},
      {"measurement": "concentration at 1 h", "setting": "[1]; [5]", "value": 191, "unit": "ng/mL"},
      {"measurement": "concentration at 2 h", "setting": "[1]; [4]", "value": 63.3, "unit": "ng/mL"},
      {"measurement": "concentration at 2 h", "setting": "[1]; [5]", "value": 68.4, "unit": "ng/mL"},
      {"measurement": "concentration at 4 h", "setting": "[1]; [5]", "value": 30.6, "unit": "ng/mL"},
      {"measurement": "concentration at 8 h", "setting": "[1]; [5]", "value": 6.38, "unit": "ng/mL"},
      {"measurement": "concentration at 24 h", "setting": "[1]; [4]", "value": 0.5, "unit": "ng/mL"},
      {"measurement": "C0", "setting": "[1]; Sprague-Dawley, iv, 3 mg/kg, IV 3 mg/kg, individual rats, read-out: C0", "value": 1710, "unit": "ng/mL"},
      {"measurement": "half-life", "setting": "[1]; Sprague-Dawley, iv, 3 mg/kg, IV 3 mg/kg, mean n=3", "value": 2.73, "unit": "h"},
      {"measurement": "concentration at 0.25 h", "setting": "[1]; [6]", "value": 191, "unit": "ng/mL"},
      {"measurement": "concentration at 0.5 h", "setting": "[1]; [6]", "value": 197, "unit": "ng/mL"},
      {"measurement": "concentration at 1 h", "setting": "[1]; [7]", "value": 109, "unit": "ng/mL"},
      {"measurement": "concentration at 1 h", "setting": "[1]; [6]", "value": 125, "unit": "ng/mL"},
      {"measurement": "concentration at 2 h", "setting": "[1]; [7]", "value": 75.1, "unit": "ng/mL"},
      {"measurement": "concentration at 2 h", "setting": "[1]; [6]", "value": 66.7, "unit": "ng/mL"},
      {"measurement": "concentration at 4 h", "setting": "[1]; [7]", "value": 66.3, "unit": "ng/mL"},
      {"measurement": "concentration at 4 h", "setting": "[1]; [6]", "value": 51.2, "unit": "ng/mL"},
      {"measurement": "concentration at 8 h", "setting": "[1]; [7]", "value": 68.7, "unit": "ng/mL"},
      {"measurement": "concentration at 8 h", "setting": "[1]; [6]", "value": 49.9, "unit": "ng/mL"},
      {"measurement": "concentration at 24 h", "setting": "[1]; Sprague-Dawley, po, 10 mg/kg, PO 10 mg/kg, mean (one rat BLOQ), vehicle 20% HP-β-CD in water (POA), read-out: concentration in plasma, Mean", "value": 0.574, "unit": "ng/mL"},
      {"measurement": "solubility at 2 h", "setting": "[2]", "value": "< 1000", "unit": "µg/mL"},
      {"measurement": "pKa", "setting": "[3]", "value": "~5.2"}
    ]}
  ]
}
